The target in test [1] is high affinity nicotinic receptors. The test is described as follows: Inhibition of L-[3H]nicotine binding to mouse brain membrane preparations. Also on record: species or system Mice (DBA strain). The settings on record: mouse brain membranes, 10 nM L-[3H]nicotine, 2 hr at 4° C.; Ki calculated from IC50 by Cheng method; read-out: Ki (concentration of compound which inhibits 50 percent of L-[3H]nicotine binding). How it is done:
Mice (DBA strain) were maintained on a 12 hour light/dark cycle and were allowed free access to water and food supplied by Wayne Lab Blox, Madison, Wis. Animals used in the present studies were 60 to 90 days of age and weighed 20 to 25 g. Brain membrane preparations were obtained from pooled brain tissue of both males and females.
Mice were killed by cervical dislocation. Brains were removed and placed on an ice-cold platform. The cerebellum was removed and the remaining tissue was placed in 10 volumes (weight:volume) of ice-cold buffer (Krebs-RingersHEPES:NaCl, 118 mM; KCl, 4.8 mM; CaCl2, 2.5 mM; MgSO4, 1.2 mM; HEPES, 20 mM; pH to 7.5 with NaOH) and homogenized with a glass-Teflon tissue grinder. The resulting homogenate was centrifuged at 18000×g for 20 min. and the resulting pellet was resuspended in 20 volumes of water. After 60 min. incubation at 4° C., a new pellet was collected by centrifugation at 18000×g for 20 min. After resuspension in 10 volumes of buffer, a new final pellet was again collected by centrifugation at 18000×g for 20 min. Prior to each centrifugation step, the suspension was incubated at 37° C. for 5 min. to promote hydrolysis of endogenous acetylcholine. […] Protein was determined by the method of Lowry, et al., J. Biol. Chem., Vol. 193, pp. 265-275 (1951), using bovine serum albumin as the standard.
The binding of L-[^3 H]nicotine was measured using a modification of the method of Romano, et al., Science, Vol. 210, pp. 647-650 (1980) as described previously by Marks, et al., Mol. Pharmacol., Vol. 30, pp. 427-436 (1986). The binding of L-[^3 H]nicotine was measured using a 2 hr. incubation at 4° C. […] Nonspecific binding was determined by inclusion of 10 μM nonradioactive nicotine in the incubations. The inhibition of L-[^3 H]nicotine binding by test compounds was determined by including one of eight different concentrations of the test compound in the incubation. […] Inhibition constants (Ki values) were calculated from the IC50 values using the method of Cheng, et al., Biochem. Pharmacol., Vol. 22, pp. 3099-3108 (1973). […]

Test [2] concerns synaptosomes from the striatal area of rat brain. The test is described as follows: [3H]-dopamine release from rat striatal synaptosomes. Format: cell-based, Sprague-Dawley rats. Conditions: read-out: Dopamine Release (percent release relative to (S)-(-)-nicotine). The procedure: Dopamine release was measured by preparing synaptosomes from the striatal area of rat brain obtained from Sprague-Dawley rats generally according to the procedures set forth by Nagy, et al., J. Neurochem., Vol. 43, pp. 1114-1123 (1984). Striata from 4 rats were homogenized in 2 ml of 0.32M sucrose buffered with 5 mM HEPES (pH 7.5), using a glass-teflon tissue grinder. The homogenate was diluted to 5 ml with additional homogenization solution and centrifuged at 1000×g for 10 min. This procedure was repeated on the new pellet and the resulting supernatant was centrifuged at 12,000×g for 20 min. A 3 layer discontinuous Percoll gradient consisting of 16 percent, 10 percent and 7.5 percent Percoll in HEPES-buffered sucrose was made with the final pellet dispersed in the top layer. After centrifugation at 15,000×g for 20 min., the synaptosomes were recovered above the 16 percent layer with a pasteur pipette, diluted with 8 ml of perfusion buffer (128 mM NaCl, 2.4 mM KCl, 3.2 mM CaCl2, 1.2 mM KH2 PO4, 1.2 mM MgSO4, 25 mM HEPES pH 7.4, 10 mM dextrose, 1 mM ascorbate, 0.01 mM pargyline), and centrifuged at 15,000×g for 20 min. The new pellet was collected and re-suspended in perfusion buffer. The synaptosome suspension was incubated for 10 min. at 37° C. Then [^3 H]-dopamine (Amersham, 40-60 Ci/mmol) was added to the suspension to give a final concentration of 0.1 μM in suspension, and the suspension was incubated for another 5 min. Using this method, 30 to 90 percent of the dopamine was taken up into the synaptosomes, as determined by scintillation counting following filtration through glass fiber filters soaked with 0.5 percent polyethyleneimine. A continuous perfusion system was used to monitor release following exposure to each ligand. The ligands are named in Table I. Synaptosomes were loaded onto glass fiber filters (Gelman type A/E). Perfusion buffer was dripped onto the filters (0.2-0.3 ml/min.) and pulled through the filters with a peristaltic pump. Synaptosomes were washed with perfusion buffer for a minimum of 20 min. before addition of the ligand. After the addition of a 0.2 ml of a 20 μM solution of ligand, the perfusate was collected into scintillation vials at 1 min. intervals and the dopamine released was quantified by scintillation counting. Peaks of radioactivity released above background were summed and the average basal release during that time was subtracted from the total. Release was expressed as a percentage of release obtained with an equal concentration of (S)-(-)-nicotine.

The mark [3] stands for this setting: 0.2 ml of 20 μM ligand solution, relative to equal concentration of (S)-(-)-nicotine.

Where two headings read alike, the source gives them in different places.

In the case of `CN1CCCCC1c1cccnc1` (stereo not shown) [methyl anabasine], the Ki in test [1] is 0.45 µM. Moreover, the Emax at 20 µM in test [2] stood at 5%.
As for `c1cncc(C2=NCCC2)c1` [myosmine], the Ki in test [1] is 3.7 µM. Also, the Emax at 20 µM in test [2] (setting [3]) came to 10%.
For `C1=CCC(c2cccnc2)NC1` (racemic) [anatabine] the same measures were 0.24 µM and 70%.
For `Fc1cncc(C2=NCCCC2)c1` [5-fluoroanabaseine], in test [2] (setting [3]), the Emax at 20 µM is 50%.

Values taken from patent US5276043A, “Method for treatment of neurodegenerative diseases” (priority 1993, dated 1994).
